In patent publication US20070088023A1, “Method of administration for 5-(2-chlorophenyl)-1,2-dihydro-7-fluoro-8-methoxy-3-methyl-oyrazolo[1,4]benzodiazepine” (priority 2005, published 2007):
Read-outs that look alike come from different tables or passages of the source.

Assay: pre-clinical good laboratory practices toxicology, maximum tolerated dose
Set-up: species or system rats
Conditions: rat, in vivo
Protocol: The starting dose is based on pre-clinical good laboratory practices toxicological results, according to the accepted standards. […] Thus, the maximum tolerated dose equivalent for this trial will be 1/10th of the HED or 1.8 rounded down to 1.5 mg/m^2/day with dose escalation in 1.5 mg/m^2 increments to 30 mg/m^2 or until dose limiting toxicity(s)(DLT) occur.

## COc1cc2c(cc1F)C(c1ccccc1Cl)=Nc1c(n[nH]c1C)N2 [compound of Formula I, 5-(2-chlorophenyl)-1,2-dihydro-7-fluoro-8-methoxy-3-methyl-pyrazolo[3,4-b][1,4]benzodiazepine]
Rat MTD 3 mg/kg/day times 6, read-out: HED (human equivalent dose) of the rat maximum tolerated dose
  MTD: 18 mg/kg/day
rats, pre-clinical GLP toxicology, read-out: maximum tolerated dose in rats
  MTD: 3 mg/kg/day
